This note sets out measurements from article PMC11945201, “Enhancing the Oral Bioavailability of Glutathione Using Innovative Analogue Approaches” (Pharmaceutics, 2025).

SMILES strings stand for the structures. Some results are limits rather than exact numbers.

Series [1] concerns glutathione S-transferase (GST). As to the kind of experiment: Glutathione S-transferase assay (CDNB conjugation, absorbance 340 nm). The series is classed as biochemical, equine. Particulars: for GST Activity > 50%: yes/no, compared to GSH, more than 50% considered retaining GST activity. The protocol:
The degree of conjugation of GSH or novel compounds to a substrate catalysed by GST can be monitored […] by conjugation with the substrate 1-chloro-2,4-dinotrobenzene (CDNB) to a thiol group. Successful conjugation results in the formation of a S-DNB conjugate, which strongly absorbs at 340 nm.
A stock solution of GSH and novel compounds (0.0315 mmolL^−1) were prepared. GSH or novel compounds (26 µL) were added to a mixture of pH = 7.4 DPBS (170 µL), CDNB (2 µL, 100 mmolL^−1), and GST enzyme (2 µL, 25 UmL^−1) to initiate the reaction. The rate of increase in absorbance at 340 nm was monitored every minute over a 10 min period. The rate of increase in absorbance at 340 nm was calculated by the following equation (Equation (1)), where ΔA340 is the change in absorption at 340 nm per minute:(1) ΔA340=A340(final)–A340(initial)/t.
The rate of increase in absorption at 340 nm was correlated to the specific activity of GST using the following equation (Equation (2)):(2) ΔA340×V/εmM ×Venz=Specific activity of GST, where the extinction coefficient εmM for a 96-well plate of a path length of 0.5 cm is 5.3 mmolL^−1cm^−1; Venz is the volume of the GST enzyme sample used (2 µL); and V is the total volume used ([…]). […] A GST activity more than 50% was considered as retaining GST activity.

In series [2] the test system is Caco-2, Fibroblast, and HT29-MTX-E12 cells. In words: Cytotoxicity by MTT cell viability. It counts as cell-based. Conditions: for IC50: Homo sapiens, 24 h incubation, cell line not split in table (Caco-2, Fibroblast, HT29-MTX-E12), highest usable concentration 3.25 mmolL^−1. The protocol: All cell culture studies were conducted in aseptic conditions. Incubation was maintained at an atmosphere of 37.0 °C, 5% CO2, and 95% relative humidity. The caco-2 cells were grown in complete Dulbecco’s modified Eagle’s medium (DMEM), which was prepared by adding 10% foetal bovine serum (FBS), 1% penicillin-streptomycin (P-S), and 1% non-essential amino acids (NEAA) to sterile DMEM. Cells were cultured in T-25 and T-75 tissue culture flasks, and the medium was exchanged every 3 days until 90% confluence was reached. Cells were detached and subcultured with 0.25% Trypsin-EDTA. The suspended cell concentration was determined by cell counting.
Cytotoxicity was measured by measuring cell viability using MTT. Then, 90% confluent cells were detached by 0.25% trypsin-EDTA, which were then counted and seeded into sterile 96-well plates. Caco-2 cells were seeded into 96-well plates at a density of 100,000 cells per well and incubated for 24 h prior to the experiment. Fibroblast cells were seeded into 96-well plates at a density of 10,000 cells per well and incubated for 24 h prior to the experiment. HT-29 cells were seeded into 96-well plates at a density of 10,000 cells per well and incubated for 24 h prior to the experiment. The supernatant in each well were discarded and the attached cells were washed using serum-free Fluorobite^TM DMEM twice to remove any phenol red. The peptide, at concentrations of 10 mgmL^−1, 1 mgmL^−1, 0.1 mgmL^−1, 0.01 mgmL^−1, 0.001 mgmL^−1, and 0.0001 mgmL^−1 were dissolved in serum-free Fluorobite^TM DMEM. The total volume of sample in each well used was 100 μL. The cells were incubated with the peptide for 24 h. Cells were also incubated with serum-free DMEM (positive control) and 2% Triton-X (negative control) for 24 h. The supernatant in each well was then discarded and washed using serum-free Fluorobite^TM DMEM. MTT (100 μL, 1.2 mmolL^−1) dissolved in Fluorobite^TM DMEM was then added to each well and incubated for 2 h for MTT conversion into formazan. The supernatant was then discarded, and the cells were washed using Fluorobite^TM DMEM to remove any residual MTT and formazan that were not attached to cellular mitochondria. Formazan was dissolved in dimethyl sulfoxide (DMSO) (50 μL), and the absorbance was measured on a microplate reader at a wavelength of 570 nm. Cell viability was expressed as a percentage of the positive control and calculated as follows (where Aexp is the absorbance at 570 nm of the experimental group, Aneg is the absorbance at 570 nm of the negative control, and Acon is the cell viability of the positive control): Cell viability = (Aexp − Aneg)/(Acon − Aneg).

Series [3] concerns glutathione reductase (GR) and glutathione peroxidase (GPx). In words: Glutathione reductase and glutathione peroxidase coupled assay (NADPH, 340 nm). Particulars: for GT/GPx Activity > 50%: yes/no, more than 50% considered retaining GR and GPx activity. It counts as biochemical, yeast (GR), bovine (GPx). The protocol: The activity of GR can be measured by monitoring the rate of decrease in absorbance of its substrate, NADPH, which absorbs light of 340 nm in the presence of a second substrate, i.e., oxidised GSH. […] In the presence of peroxides, reduced GSH can be oxidised by the enzyme GPx while reducing the peroxide. […] The NADPH solution (10 μL, 5 mmolL^−1), GPx enzyme solution (10 μL, 0.25 UmL^−1), and GR enzyme solution (10 μL, 10 UmL^−1) were also added to the reaction mixture. The reaction was initiated by the addition of tBu-OOH (2 μL, 30 mmolL^−1), and the decrease in absorbance at 340 nm was recorded by a microplate reader every 10 secs for one minute. […] A GR and GPx activity more than 50% was considered as retaining GR and GPx activity.

For the next series, the system named is Fibroblast cells. As to the kind of experiment: UV rescue of UVA-irradiated fibroblast cells (MTT). The series is classed as cell-based. Conditions: for % Cell Viability (with UV): UVA 1 h, then peptide 0.0325 mmolL^−1, 24 h. The protocol:
Fibroblast cells were seeded into 96-well plates at a density of 10,000 cells per well determined by cell counting. Cells were allowed to settle and attach for 24 h before the addition of peptides. The supernatant in each well was discarded, and the attached cells were washed using serum-free DMEM twice. One group of cells was exposed to UVA under a UV lamp for 1 h. A second group of cells was not exposed to UV irradiation. The supernatant was removed from each well of both groups and replaced with peptide (100 μL, 0.0325 mmolL^−1), which was then dissolved in Fluorobite^TM DMEM. Each plate, including 2 wells of both groups was also incubated with serum-free DMEM (positive control) and 2% Triton-X (negative control) for 24 h. The supernatant in each well of both groups was then discarded and the cells washed using PBS. MTT (100 μL, 6 mmolL^−1) that was dissolved in HBSS was then added to each well and incubated for 2 h for MTT conversion into formazan. The supernatant was then discarded, and the cells were washed using PBS to remove any residual MTT and formazan that were not attached to the cellular mitochondria. Formazan was dissolved in DMSO (50 μL), and the absorbance was measured on a microplate reader at a wavelength of 570 nm.

In general, IC50 refers to the concentration at which inhibition is half-maximal. Read a high IC50 as weaker potency in that assay. On to `CN(C(=O)CC[C@H](N)C(=O)O)[C@@H](CS)C(=O)NCC(=O)O` [Compound 1.70], for which the “activity/efficacy with GST enzyme (in words)” value in series [1] (qualitative analysis) is “did not”. Moreover, the “GST Activity > 50%” value in series [1] is “✔ (✔: yes)”. The concentration for half-maximal inhibition (IC50) in series [2] was > 3.25 mM. Moreover, the “cytotoxicity (in words)” value in series [2] (up to 3.25 mmolL^−1) was “no cytotoxicity detected”. The “activity with GPx and GR enzymes (in words)” value in series [3] (qualitative analysis) is reported as “retention of activity”. Besides, the “GT/GPx Activity > 50%” value in series [3] is given as “✔ (✔: yes)”. Further, in the series with Fibroblast cells (UV rescue), the “cell viability versus untreated groups (in words)” value is “significantly higher cell viability than the untreated groups”. Also, the “% Cell Viability (with UV)” value with Fibroblast cells (mean ± SD, n = 6) was determined as 112.4 ± 9.7%.

For `N[C@@H](CCC(=O)N[C@@H](CS)C(=O)NCC(=O)O)C(=O)O` [GSH, Glutathione], in series [1], the “GST Activity > 50%” value is “✔ (✔: yes)”. Further, the IC50 in series [2] was > 3.25 mM. For the same compound, the “GT/GPx Activity > 50%” value in series [3] is reported as “✔ (✔: yes)”. Moreover, in the series with Fibroblast cells (mean ± SD, n = 6), the “% Cell Viability (with UV)” value came to 87.7 ± 4.5%. In the series with Fibroblast cells (peptide 0.0325 mmolL^−1, 24 h, no UV, mean ± SD, n = 6), the “% Cell Viability (no UV)” value turned out to be 100.0 ± 8.1%.
